Measurements published in US6677302B2, “Compositions and methods for the treatment of viral disorders” (The Trustees of Boston University, priority 1996, dated 2004).
“Also recorded” adds a separate entry of the source. Marks after values point to notes of the source that are not given here.

Experiments:
[1] = system: 3 other neuroblastoma cell lines; test: Growth inhibition over 6 days (RFU); format: cell-based, human; conditions: 0.5 and 1.0 mM, FIG. 1a
[2] = system: Colonic Adenocarcinoma (HT 29); test: Differentiation and growth arrest of tumor cell line; format: cell-based, human
Method: The effects of arginine butyrate compounds on differentiation of several human tumor cell lines were evaluated by visual inspection and by histochemical and pathological staining:
Inhibition of DNA synthesis (as measured by ^3H-thymidine incorporation) occurred by 6 hours. Expression of the proto-oncogene c-myc was decreased by 2 hours.

Myeloid Leukemia (HL60) = test: MIC on cell proliferation, 7 days in culture; format: cell-based, human
Method: (§1) The ability of arginine butyrate to induce differentiation has been evaluated and is measured by inhibition of growth, in some of the neoplastic cell types previously reported to be sensitive to (sodium) butyric acid, and found arginine butyrate to be as potent as butyric acid. We have also extended that work to additional cell types and found Arginine Butyrate to induce differentiation in these new cell types. Table 1 lists the cell types tested and the minimum inhibitory concentration (MIC) of sodium butyrate (NaB) and arginine butyrate (ArgB) on these cell lines. The MIC is the lowest dose that prevents all growth over the 7 days that the cells are maintained in culture, that is the minimum dose that prevents an increase in cell number. […] The […] of ArgB and NaB were equivalent on all cell lines tested.

Rhabdomyosarcoma = test: MIC on cell proliferation, 7 days in culture; format: cell-based, human
Method: as §1

[3] = system: Colonic Adenocarcinoma (HT29); test: MIC on cell proliferation, 7 days in culture; format: cell-based, human
Method: as §1

Gastric Carcinoma (AGS) = test: MIC on cell proliferation, 7 days in culture; format: cell-based, human
Method: as §1

Glioblastoma Multiforme = test: MIC on cell proliferation, 7 days in culture; format: cell-based, human
Method: as §1

Choriocarcinoma (JAR) = test: MIC on cell proliferation, 7 days in culture; format: cell-based, human
Method: as §1

Erythroleukemia (K562) = test: MIC on cell proliferation, 7 days in culture; format: cell-based, human
Method: as §1

Osteosarcoma (HOS) = test: MIC on cell proliferation, 7 days in culture; format: cell-based, human
Method: as §1

OvCar (ovarian cancer) = test: Survival fraction after 72 hours exposure (MTT assay); format: cell-based, human
Method: (§2) Growth inhibition was measured by the MTT assay. Survival fraction is calculated from at least 3 experiments, and differences in survival fraction are statistically significant P<0.05, using the Paired Two-Sample For Means T-Test. […] PC-3=prostate cancer; A549=non-small cell cancer; OvCar=ovarian cancer; CaCo=colon cancer; MCF-7=breast cancer; and SW900=non-small cell lung cancer.

MCF-7 (breast cancer) = test: as above; format: cell-based, human
Method: as §2

[4] = system: SW900 (non-small cell lung cancer); test: as above; format: cell-based, human
Method: as §2

PC-3 (prostate cancer) = test: as above; format: cell-based, human
Method: as §2

IL-2 receptor = test: Expression of the IL-2 receptor; format: cell-based
From the text: The IL-2 receptor is a target for therapies currently under development. For example, antibodies directed to the IL-2 receptor and conjugated to a toxin, are currently being tested in the clinic, and IL-2, itself conjugated to a toxin, is currently being tested in the clinic. […] This increased expression might potentiate the therapies under development.

[5] = system: HLA antigens in K562 cells; conditions: one hour of exposure to 1 mM
Method: HLA Induction: Arginine butyrate was tested for its ability to induce expression of HLA antigens in K562 cells, a human erythroleukemia cell line.

[6] = Clinical toxicity in patients; format: in vivo, human; conditions: for grade 3 or 4 toxicities: patients treated up to 2,000 mg/kg/day
Method: Clinical experience with butyrates have been performed in children with acute myelogenous leukemia in Israel, and in children with neuroblastoma (K. Prasad, Life Sci. 27:1351-58, 1980). […] Eleven pediatric patients and twelve adults with β-hemoglobinopathies were treated with IV arginine butyrate at a starting dose of 500 mg/kg/day for 2-7 weeks. If no side effects were noted, the rate was increased by 250 mg/kg/day to a final rate of 1500 mg/kg/day in 4 patients, and 2000 mg/kg/day in 2 patients. […] This rise in BUN returned to normal within 12 hours of discontinuation of drug, and is thought to be secondary to effect of arginine upon ureagenesis. […] Peak serum levels of butyrate ranged between 0.04-0.05 mM, and butyrate was not detectable 15 minutes after infusion was discontinued. Plasma arginine levels were also rapidly cleared, with a T1/2 of 15 minutes, and baseline arginine levels were reached within 12 hours after discontinuation of infusion.
Three patients with refractory neoplasms (breast, melanoma, adenocarcinoma, of unknown primary) have been enrolled and completed 1-2 cycles of arginine butyrate as a dose of 500 mg/kg/day over 6-8 hours for 10 days.
Three patients (with breast cancer, bowel cancer or Hodgkins disease) have completed two cycles of arginine butyrate at a dose of 750 mg/kg/day for 10 days. […] Otherwise, there was no other objective measures of organ progressed after treatment was topped. […] There was a further resolution of the disease during the second cycle. Disease progression was noted one month after second cycle was completed. At 1000 mg/kg/day, 3 patients have been enrolled on study.
An inter-group dose-escalation study is being conducted in patients with refractory malignancies. There are 3 patients per group with the dose levels starting at 500 mg/kg/day, and increasing by 250 mg/kg/day per group, if toxicity permits. Doses are given by 8 hour IV infusion, daily, for 5 days times 2 weeks, with weekends off, for a total of 10 days of treatment per cycle.

K562 = test: DNA fragmentation by flow cytometry; format: cell-based, human; conditions: alone, FIG. 3
From the text: It has been shown that sodium butyrate can induce apoptosis in human tumors or tumor cell lines (L. A. Noorduyn et al., Histopathology 21:59, 1992).

[7] = Table 3, 0.5 AB (0.5 mM), 72 hours
[8] = Table 4, 0.5 AB (0.5 mM), 72 hour

arginine butyrate
growth inhibition [1]: dose response growth inhibition | morphology and differentiation markers [2]: developed a mature brush border, and increased expression of sucrase/isomaltase | time by which expression of proto-oncogene c-myc was decreased [2]: ≤ 2 h | time by which inhibition of DNA synthesis (3H-thymidine incorporation) occurred [2]: ≤ 6 h | growth arrest ([2]; no further growth out to 25 days): absolute growth arrest by day 3-4 | MIC (Myeloid Leukemia (HL60)): 78 µM | MIC (Rhabdomyosarcoma): 156 µM | MIC [3]: 2,000 μM | MIC (Gastric Carcinoma (AGS)): 2,000 μM | MIC (Glioblastoma Multiforme): 1,000 μM | MIC (Choriocarcinoma (JAR)): 156 µM | MIC (Erythroleukemia (K562)): 1,250 μM | MIC (Osteosarcoma (HOS)): 312 µM | Survival Fraction (OvCar (ovarian cancer); [7]): 0.86** | Survival Fraction (OvCar (ovarian cancer); [8]): 0.88* | Survival Fraction (OvCar (ovarian cancer); Table 4, .05 AB, 72 hour): 0.96 | Survival Fraction (MCF-7 (breast cancer); Table 4, 0.5 AB (0.5 mM)): 0.74* | Survival Fraction (MCF-7 (breast cancer); Table 4, .05 AB): 0.89* | Survival Fraction ([4]; Table 4, 0.5 AB (0.5 mM)): 0.92 | Survival Fraction ([4]; Table 4, .05 AB): 0.95 | Survival Fraction (PC-3 (prostate cancer); [7]): 0.67* | Survival Fraction (PC-3 (prostate cancer); [8]): 0.74* | Survival Fraction (PC-3 (prostate cancer); Table 4, .05 AB, 72 hour): 0.82* | IL-2 receptor expression (IL-2 receptor): increase expression of the IL-2 receptor | HLA expression increase [5]: more than 20 fold | patients with grade 1 nausea/vomiting ([6]; 500 mg/kg/day, three patients): Two of the three patients | patients with grade I nausea/vomiting ([6]; 750 mg/kg/day for 10 days, three patients): One of the three patients; also recorded: One, of the three patients | serum BUN ([6]; 750 mg/kg/day, one patient): transient elevation of serum BUN | time to resolution of BUN elevation and proteinuria after discontinuation ([6]; 750 mg/kg/day, one patient): ≤ 5 days | toxic side effects ([6]; adults, IV infusion of similar doses): no toxic side effects | grade 3 or 4 toxicities ([6]; listed as Arginine butyrate): no grade 3 and no grade 4 toxicities reported | grade 3 or 4 toxicities ([6]; listed as arginine butyrate): no grade 3 or 4 toxicities | organ specific toxicity ([6]; recorded by principal investigators): No organ specific toxicity was recorded | objective toxicities (hepatic, renal, cardiac, pulmonary, hematopoietic) ([6]; refractory neoplasms, 500 mg/kg/day over 6-8 hours for 10 days): no objective toxicities noted | untoward side effects ([6]; three cancer patients, emergency basis, up to 2,000 mg/kg/day, 10 days): no untoward side effects noted | side effect: anorexia ([6]; β-hemoglobinopathies, IV 500-2000 mg/kg/day): Transient anorexia developed in one patient | side effect: serum aminotransferase ([6]; β-hemoglobinopathies, IV 500-2000 mg/kg/day, 2-7 weeks): transient, slight rise in serum aminotransferase | time for rise in BUN to return to normal after discontinuation ([6]; β-hemoglobinopathies, continuous infusion over 2 weeks): ≤ 12 h | DNA fragmentation and cellular shrinkage (K562): DNA fragmentation and cellular shrinkage
